pIC50: −log10 of the molar value.
Key:
[1] = test system: p-4E-BP1 at T70; assay: Cellular p-4E-BP1-T70 assay in KPL-4 cells; assay type: cell-based; conditions: Homo sapiens, KPL4; KPL-4 breast tumour cell line, compound treatment 2 hours; read-out: P4EBP1-T70 median IC50
Protocol: (§1) The molecular mechanism of action was investigated in a set of experiments to assess the inhibition of the PI3K-AKT-mTOR pathway in responsive cell lines such as KPL-4 breast tumour cell line (PIK3CA^H1047R, HER2^O/E and hormone independent). The phospho-substrates of PI3K-AKT-mTOR axis were used as the read-outs to reflect pathway inhibition. Cells were seeded at 60-80% confluency per well in 96-well cell culture plates. After overnight incubation at 37° C. 5% CO2, cells were treated with compounds and vehicle at 37° C. for 2 hours. […] All measurements where at least done in duplicates and confirmed by independent repetition.

[2] = test system: MCF-7 breast tumour cell line; assay: Tumor cell proliferation assay (CellTiter-Glo), MCF-7; assay type: cell-based; conditions: Homo sapiens, MCF7, 72 h drug exposure, read-out: MCF-7 median IC50
Protocol: (§2) Biological Assay 4.0: Tumor Cell Proliferation Assays
(§3) Compounds were tested in a cell-based assay that measures the capacity of the compounds to inhibit tumour cell proliferation following a 72 h drug exposure. Cell viability is determined using CellTiter-Glow® (CTG, Promega, cat#G7571/2/3). The CellTiter-Glo® Luminescent Cell Viability Assay is a homogeneous method to determine the number of viable cells in culture.
(§4) Detection is based on using the luciferase reaction to measure the amount of ATP from viable cells. The amount of ATP in cells correlates with cell viability. Within minutes after a loss of membrane integrity, cells lose the ability to synthesize ATP, and endogenous ATPases destroy any remaining ATP; thus the levels of ATP fall precipitously.
(§5) For each cell line assayed, cells were plated onto a separate plate for determination of fluorescence at t=0 hour and t=72 hour time points. Following overnight incubation at 37° C., chemiluminescence values for the t=0 samples were determined after adding 10 μl medium and 100 μl CTG solution according to manufacture protocol. Plates for the t=72 hour time points were treated with compounds diluted into growth medium at ten times final concentration added in 10 μL to the cell culture plate. Cells were then incubated for 72 hours at 37° C. Chemiluminescence values for the t=72 hour samples were determined. […] Experiments were controlled using a reference compound as standard.

[3] = test system: KPL-4 breast cancer cell line; assay: Tumor cell proliferation assay (CellTiter-Glo), KPL-4; assay type: cell-based; conditions: Homo sapiens, KPL4, 72 h drug exposure, read-out: KLP-4 median IC50
Protocol: as §2, §3, §4, §5

[4] = target: His-tagged human recombinant kinase full-length Akt1 (Homo sapiens (Human), UniProt P31749); assay: Akt1 kinase assay (Akt1 TR-FRET assay); assay type: biochemical; conditions: 10 μM ATP, 60 min at 22° C., read-out: Akt1 median IC50
Description: Biological Assay 1.0: Akt1 Kinase Assay
Akt1 inhibitory activity of compounds of the present invention was quantified employing the Akt1 TR-FRET assay as described in the following paragraphs.
His-tagged human recombinant kinase full-length Akt1 expressed in insect cells was purchased form Invitrogen (part number PV 3599). As substrate for the kinase reaction the biotinylated peptide biotin-Ahx-[sequence] (C-terminus in amide form) was used which can be purchased e.g. from the company Biosynthan GmbH (Berlin-Buch, Germany).
For the assay 50 nl of a 100 fold concentrated solution of the test compound in DMSO was pipetted into a black low volume 384 well microtiter plate (Greiner Bio-One, Frickenhausen, Germany), 2 μl of a solution of Akt1 in assay buffer [50 mM TRIS/HCl pH 7.5, 5 mM MgCl2, 1 mM dithiothreitol, 0.02% (v/v) Triton X-100 (Sigma)] were added and the mixture was incubated for 15 min at 22° C. to allow pre-binding of the test compounds to the enzyme before the start of the kinase reaction. Then the kinase reaction was started by the addition of 3 μl of a solution of adenosine-tri-phosphate (ATP, 16.7 μM=>final conc. in the 5 μl assay volume is 10 μM) and substrate (1.67 μM=>final conc. in the 5 μl assay volume is 1 μM) in assay buffer and the resulting mixture was incubated for a reaction time of 60 min at 22° C. The concentration of Akt1 in the assay was adjusted depending of the activity of the enzyme lot and was chosen appropriate to have the assay in the linear range, typical enzyme concentrations were in the range of about 0.05 ng/μl (final conc. in the 5 μl assay volume). The reaction was stopped by the addition of 5 μl of a solution of HTRF detection reagents (200 nM streptavidine-XL665 [Cisbio] and 1.5 nM anti-phosho-Serine antibody [Millipore, cat. #35-001] and 0.75 nM LANCE Eu-W 1024 labeled anti-mouse IgG antibody [Perkin Elmer]) in an aqueous EDTA-solution (100 mM EDTA, 0.1% (w/v) bovine serum albumin in 50 mM HEPES/NaOH pH 7.5). The resulting mixture was incubated 1 h at 22° C. to allow the binding of the biotinylated phosphorylated peptide to the streptavidine-XL665 and the antibodies. Subsequently the amount of phosphorylated substrate was evaluated by measurement of the resonance energy transfer from the anti-mouse-IgG-Eu-Chelate to the streptavidine-XL665. Therefore, the fluorescence emissions at 620 nm and 665 nm after excitation at 350 nm was measured in a HTRF reader, e.g. a Rubystar (BMG Labtechnologies, Offenburg, Germany) or a Viewlux (Perkin-Elmer). The ratio of the emissions at 665 nm and at 622 nm was taken as the measure for the amount of phosphorylated substrate.

[5] = test system: phospho-AKT at S473; assay: Cellular p-AKT1/2/3-S473 assay in KPL-4 cells; assay type: cell-based; conditions: Homo sapiens, KPL4; KPL-4 breast tumour cell line, compound treatment 2 hours; read-out: pAKT-S473 median IC50
Protocol: as §1
Alternatively pAKT-S473 was measured using the “Akt Duplex” of the MULTI-SPOT® Assay System (Fa. Meso Scale Discovery, Cat#N41100B-1) following manufacturers instructions. Each assay used 20 μg of protein extract and measured total AKT and p-AKT content simultaneously in one well. All measurements where at least done in duplicates and confirmed by independent repetition. Values for P-AKT are expressed as percentage of P-AKT level compared to total-AKT content of the extracts.

[6] = target: His-tagged human recombinant kinase full-length Akt2 (Homo sapiens (Human), UniProt P31751); assay: Akt2 kinase assay (Akt2 TR-FRET assay); assay type: biochemical; conditions: 10 μM ATP, 60 min at 22° C., read-out: Akt2 median IC50
Chain of His-tagged human recombinant kinase full-length Akt2 (P31751 whole entry): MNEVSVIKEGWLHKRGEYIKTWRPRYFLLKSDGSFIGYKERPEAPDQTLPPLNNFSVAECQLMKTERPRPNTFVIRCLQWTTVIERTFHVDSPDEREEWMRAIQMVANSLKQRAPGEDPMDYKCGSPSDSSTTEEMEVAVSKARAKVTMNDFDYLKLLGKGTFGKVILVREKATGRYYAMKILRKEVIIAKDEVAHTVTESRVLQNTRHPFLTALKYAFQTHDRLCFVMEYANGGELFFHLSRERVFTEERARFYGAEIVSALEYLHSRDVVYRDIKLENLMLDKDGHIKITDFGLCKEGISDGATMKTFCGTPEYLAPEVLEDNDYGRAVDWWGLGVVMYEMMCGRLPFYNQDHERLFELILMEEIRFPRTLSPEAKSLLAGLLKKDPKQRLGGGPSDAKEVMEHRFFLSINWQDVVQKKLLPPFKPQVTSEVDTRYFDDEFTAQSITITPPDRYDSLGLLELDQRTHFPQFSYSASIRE
Description: Akt2 inhibitory activity of compounds of the present invention was quantified employing the Akt2 TR-FRET assay as described in the following paragraphs.
His-tagged human recombinant kinase full-length Akt2 expressed in insect cells and activated by PDK1 was purchased form Invitrogen (part number PV 3975). As substrate for the kinase reaction the biotinylated peptide biotin-Ahx-[sequence] (C-terminus in amide form) was used which can be purchased e.g. from the company Biosynthan GmbH (Berlin-Buch, Germany). For the assay 50 nl of a 100 fold concentrated solution of the test compound in DMSO was pipetted into a black low volume 384 well microtiter plate (Greiner Bio-One, Frickenhausen, Germany), 2 μl of a solution of Akt2 in assay buffer [50 mM TRIS/HCl pH 7.5, 5 mM MgCl2, 1 mM dithiothreitol, 0.02% (v/v) Triton X-100 (Sigma)] were added and the mixture was incubated for 15 min at 22° C. to allow pre-binding of the test compounds to the enzyme before the start of the kinase reaction. Then the kinase reaction was started by the addition of 3 μl of a solution of adenosine-tri-phosphate (ATP, 16.7 μM=>final conc. in the 5 μl assay volume is 10 μM) and substrate (1.67 μM=>final conc. in the 5 μl assay volume is 1 μM) in assay buffer and the resulting mixture was incubated for a reaction time of 60 min at 22° C. The concentration of Akt2 in the assay was adjusted depending of the activity of the enzyme lot and was chosen appropriate to have the assay in the linear range, typical enzyme concentrations were in the range of about 0.2 ng/μl (final conc. in the 5 μl assay volume). The reaction was stopped by the addition of 5 μl of a solution of HTRF detection reagents (200 nM streptavidine-XL665 [Cisbio] and 1.5 nM anti-phosho-Serine antibody [Millipore, cat. #35-001] and 0.75 nM LANCE Eu-W 1024 labeled anti-mouse IgG antibody [Perkin Elmer]) in an aqueous EDTA-solution (100 mM EDTA, 0.1% (w/v) bovine serum albumin in 50 mM HEPES/NaOH pH 7.5). The resulting mixture was incubated 1 h at 22° C. to allow the binding of the biotinylated phosphorylated peptide to the streptavidine-XL665 and the antibodies. Subsequently the amount of phosphorylated substrate was evaluated by measurement of the resonance energy transfer from the anti-mouse-IgG-Eu-Chelate to the streptavidine-XL665. Therefore, the fluorescence emissions at 620 nm and 665 nm after excitation at 350 nm was measured in a TR-FRET reader, e.g. a Rubystar (BMG Labtechnologies, Offenburg, Germany) or a Viewlux (Perkin-Elmer). The ratio of the emissions at 665 nm and at 622 nm was taken as the measure for the amount of phosphorylated substrate.

Chain of His-tagged human recombinant kinase full-length Akt1 (P31749 whole entry): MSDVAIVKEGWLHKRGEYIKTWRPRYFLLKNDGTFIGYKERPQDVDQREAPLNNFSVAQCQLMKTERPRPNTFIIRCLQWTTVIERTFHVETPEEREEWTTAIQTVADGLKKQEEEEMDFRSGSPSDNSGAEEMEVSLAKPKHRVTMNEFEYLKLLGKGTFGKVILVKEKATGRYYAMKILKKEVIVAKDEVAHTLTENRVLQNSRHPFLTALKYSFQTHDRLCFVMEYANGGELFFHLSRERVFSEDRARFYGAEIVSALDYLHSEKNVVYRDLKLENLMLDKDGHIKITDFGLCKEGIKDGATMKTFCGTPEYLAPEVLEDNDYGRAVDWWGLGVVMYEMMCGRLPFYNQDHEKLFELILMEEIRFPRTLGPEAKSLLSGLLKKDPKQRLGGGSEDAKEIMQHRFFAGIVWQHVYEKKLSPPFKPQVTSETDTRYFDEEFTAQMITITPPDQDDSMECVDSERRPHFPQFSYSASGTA

Structure (SMILES)	pIC50 [1]	pIC50 [2]	pIC50 [3]	pIC50 [4]	pIC50 [5]	pIC50 [6]
COc1nn2c(-c3ccccc3)c(-c3ccc(C4(N)CCC4)cc3)nc2c(C)c1C [Example 53, 1-[4-(6-Methoxy-7,8-dimethyl-3-phenylimidazo[1,2-b]pyridazin-2-yl)phenyl]-cyclobutanamine]	6.00	6.06	5.77	8.04	6.70	8.62
CSc1nn2c(-c3ccccc3)c(-c3ccc(C4(N)CCC4)cc3)nc2c(C)c1C [Example 54, 1-{4-[7,8-Dimethyl-6-(methylsulfanyl)-3-phenylimidazo[1,2-b]pyridazin-2-yl]-phenyl}cyclobutanamine]	5.80	5.74	6.13	7.92	6.16	7.46
COC(=O)c1cc(-c2cc[nH]n2)c2nc(-c3ccc(C4(N)CCC4)cc3)c(-c3ccccc3)n2n1 [Example 56, Methyl 2-[4-(1-aminocyclobutyl)phenyl]-3-phenyl-8-(1H-pyrazol-3-yl)-imidazo[1,2-b]pyridazine-6-carboxylate]	6.44	5.96	5.09	8.18	6.24	7.80
CCOc1cc(C(=O)OC)nn2c(-c3ccccc3)c(-c3ccc(C4(N)CCC4)cc3)nc12 [Example 57, Methyl 2-[4-(1-aminocyclobutyl)phenyl]-8-ethoxy-3-phenylimidazo[1,2-b]pyridazine-6-carboxylate]	5.74	5.68	5.03	7.60	6.60	7.54
COC(=O)c1cc(-c2ncc[nH]2)c2nc(-c3ccc(C4(N)CCC4)cc3)c(-c3ccccc3)n2n1 [Example 58, Methyl 2-[4-(1-aminocyclobutyl)phenyl]-8-(1H-imidazol-2-yl)-3-phenylimidazo[1,2-b]pyridazine-6-carboxylate]	5.00	< 5.00	< 5.00	6.96	6.00	6.55
CNC(=O)c1ccnn2c(-c3ccccc3)c(-c3ccc(C4(N)CCC4)cc3)nc12 [Example 63, 2-[4-(1-Aminocyclobutyl)phenyl]-N-methyl-3-phenylimidazo[1,2-b]pyridazine-8-carboxamide]	9.52	6.12	5.80	7.34	8.42	6.92
COC(=O)CCc1ccnn2c(-c3ccccc3)c(-c3ccc(C4(N)CCC4)cc3)nc12 [Example 72, Methyl 3-{2-[4-(1-aminocyclobutyl)phenyl]-3-phenylimidazo[1,2-b]pyridazin-8-yl}propanoate]	6.23	5.52	5.66	6.51	6.00	6.24
CCOc1cc(OCC)c2nc(-c3ccc(C4(N)CCC4)cc3)c(-c3ccccc3)n2n1 [Example 76, 1-[4-(6,8-Diethoxy-3-phenylimidazo[1,2-b]pyridazin-2-yl)phenyl]cyclobutanamine]	6.03	6.03	5.77	7.96	6.92	7.64
CCCCOc1cc(OCC)nn2c(-c3ccccc3)c(-c3ccc(C4(N)CCC4)cc3)nc12 [Example 77, 1-[4-(8-Butoxy-6-ethoxy-3-phenylimidazo[1,2-b]pyridazin-2-yl)phenyl]-cyclobutanamine]	5.85	5.77	5.72	8.00	6.34	7.21
NC1(c2ccc(-c3nc4ccc(O)nn4c3-c3ccccc3)cc2)CCC1 [Example 79, 2-[4-(1-Aminocyclobutyl)phenyl]-3-phenylimidazo[1,2-b]pyridazin-6-ol]	6.04	5.00	5.00	5.70	6.68	5.55

The remaining molecules from weak to strong by pIC50 [1], led by results:

pIC50 [1]	pIC50 [2]	pIC50 [3]	pIC50 [4]	pIC50 [5]	pIC50 [6]	Structure (SMILES)
5.00	6.11	5.70	7.96	7.04	7.70	NC1(c2ccc(-c3nc4c(-c5cc[nH]n5)cc(C(=O)NCCO)nn4c3-c3ccccc3)cc2)CCC1 [Example 71, 2-[4-(1-Aminocyclobutyl)phenyl]-N-(2-hydroxyethyl)-3-phenyl-8-(1H-pyrazol-3-yl)imidazo[1,2-b]pyridazine-6-carboxamide]
5.01	5.00	5.00	7.02	6.72	6.21	COC(=O)COc1ccc2nc(-c3ccc(C4(N)CCC4)cc3)c(-c3ccccc3)n2n1 [Example 80, Methyl ({2-[4-(1-aminocyclobutyl)phenyl]-3-phenylimidazo[1,2-b]pyridazin-6-yl}oxy)acetate]
5.28	6.17	5.82	7.68	8.43	7.18	CNC(=O)c1ccc2nc(-c3ccc(C4(N)CCC4)cc3)c(-c3ccccc3)n2n1 [Example 68, 2-[4-(1-Aminocyclobutyl)phenyl]-N-methyl-3-phenylimidazo[1,2-b]-pyridazine-6-carboxamide]
5.77	5.70	5.74	8.37	6.64	7.37	COc1cc(-c2cc[nH]n2)c2nc(-c3ccc(C4(N)CCC4)cc3)c(-c3ccccc3)n2n1 [Example 73, 1-{4-[6-Methoxy-3-phenyl-8-(1H-pyrazol-3-yl)imidazo[1,2-b]pyridazin-2-yl]-phenyl}cyclobutanamine]
5.82	5.74	5.74	7.68	6.64	7.00	COc1cc(-c2ccncc2)c2nc(-c3ccc(C4(N)CCC4)cc3)c(-c3ccccc3)n2n1 [Example 75, 1-{4-[6-Methoxy-3-phenyl-8-(pyridin-4-yl)imidazo[1,2-b]pyridazin-2-yl]phenyl}cyclobutanamine]
7.66	6.55	6.33	8.51	8.85	8.59	CNC(=O)c1cc(-c2cc[nH]n2)c2nc(-c3ccc(C4(N)CCC4)cc3)c(-c3ccccc3)n2n1 [Example 65, 2-[4-(1-Aminocyclobutyl)phenyl]-N-methyl-3-phenyl-8-(1H-pyrazol-3-yl)imidazo[1,2-b]pyridazine-6-carboxamide]
8.70	7.25	7.48	8.39	9.30	8.43	CCOc1cc(C(N)=O)nn2c(-c3ccccc3)c(-c3ccc(C4(N)CCC4)cc3)nc12 [Example 61, 2-[4-(1-Aminocyclobutyl)phenyl]-8-ethoxy-3-phenylimidazo[1,2-b]pyridazine-6-carboxamide]
